melting point [°C] | Compound
70 to 72 | CCCOCCCN1CN(C)/C(=N/[N+](=O)[O-])N(Cc2ccc(Cl)nc2)C1
173 to 174 | CN/C(=N/[N+](=O)[O-])NCc1cnc(Cl)c(Cl)c1
